Test results from PubChem BioAssay AID2060625 (Molecular Pharmacology Branch, DTP, NCI, 2025).

System: 186277-243-T-J2-PDC spheroids with HUVEC/MSC, viability
Assay: Anticancer human tumor 186277-243-T-J2-PDC patient-derived colon adenocarcinoma cell line growth inhibition [CLK]
Details: for IC50: curve of first compound; for viability, T/C: stronger effect = lower value; active = viability on the fitted dose curve at most 10% of control; inactive = the rest
How it was run: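 Multi-cell-type spheroids combined patient-derived tumor cells with HUVEC endothelial cells and human mesenchymal stem cells. Paired agents were dosed in half-log steps down from about clinical Cmax, or from 10 microM where Cmax was unknown.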

[1] = second compound 0.0316 µM, first compound 0.0316 µM
[2] = second compound 0.0316 µM, first compound 0.1 µM
[3] = second compound 0.0316 µM, first compound 0.316 µM
[4] = second compound 0.0316 µM, first compound 1 µM
[5] = second compound 0.0316 µM, first compound 3.16 µM
[6] = second compound 0.0316 µM, first compound 10 µM
[7] = second compound 0.1 µM, first compound 0.0316 µM
[8] = second compound 0.1 µM, first compound 0.1 µM
[9] = second compound 0.1 µM, first compound 0.316 µM
[10] = second compound 0.1 µM, first compound 1 µM
[11] = second compound 0.1 µM, first compound 3.16 µM
[12] = second compound 0.1 µM, first compound 10 µM
[13] = second compound 0.316 µM, first compound 0.0316 µM
[14] = second compound 0.316 µM, first compound 0.1 µM
[15] = second compound 0.316 µM, first compound 0.316 µM
[16] = second compound 0.316 µM, first compound 1 µM
[17] = second compound 0.316 µM, first compound 3.16 µM
[18] = second compound 0.316 µM, first compound 10 µM
[19] = second compound 1 µM, first compound 0.0316 µM
[20] = second compound 1 µM, first compound 0.1 µM
[21] = second compound 1 µM, first compound 0.316 µM
[22] = second compound 1 µM, first compound 1 µM
[23] = second compound 1 µM, first compound 3.16 µM
[24] = second compound 1 µM, first compound 10 µM
[25] = second compound 3.16 µM, first compound 0.0316 µM
[26] = second compound 3.16 µM, first compound 0.1 µM
[27] = second compound 3.16 µM, first compound 0.316 µM
[28] = second compound 3.16 µM, first compound 1 µM
[29] = second compound 3.16 µM, first compound 3.16 µM
[30] = second compound 3.16 µM, first compound 10 µM
[31] = second compound 10 µM, first compound 0.0316 µM
[32] = second compound 10 µM, first compound 0.1 µM
[33] = second compound 10 µM, first compound 0.316 µM
[34] = second compound 10 µM, first compound 1 µM
[35] = second compound 10 µM, first compound 3.16 µM
[36] = second compound 10 µM, first compound 10 µM
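Note: compound exposure lasted seven days before readout.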
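Throughout, for viability, T/C: 100% = DMSO vehicle control wells.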

CC1(C)CCC(CN2CCN(c3ccc(C(=O)NS(=O)(=O)c4ccc(NCC5CCOCC5)c([N+](=O)[O-])c4)c(Oc4cnc5[nH]ccc5c4)c3)CC2)=C(c2ccc(Cl)cc2)C1 + CNC(=O)c1ccc(Nc2nc(OC3CCCC3)c3c(-c4ccc5nc(C)oc5c4)c[nH]c3n2)c(OC)c1
inactive: viability, T/C [1] 110% | viability, T/C [2] 109% | viability, T/C [3] 102% | viability, T/C [4] 102% | viability, T/C [5] 119% | viability, T/C [7] 81.6% | viability, T/C [8] 82% | viability, T/C [9] 85.8% | viability, T/C [10] 80% | viability, T/C [11] 67.9% | viability, T/C [13] 53.1% | viability, T/C [14] 57.5% | viability, T/C [15] 58.4% | viability, T/C [16] 56.8% | viability, T/C [17] 43.2% | viability, T/C [19] 36.1% | viability, T/C [20] 35.2% | viability, T/C [21] 37.5% | viability, T/C [22] 39.9% | viability, T/C [23] 33.1% | viability, T/C [24] 4.39% | viability, T/C [25] 35.9% | viability, T/C [26] 34.6% | viability, T/C [27] 35.1% | viability, T/C [28] 37.6% | viability, T/C [29] 32.1% | viability, T/C [30] 3.97% | viability, T/C [31] 34.7% | viability, T/C [32] 30.6% | viability, T/C [33] 40.3% | viability, T/C [34] 36% | viability, T/C [35] 35.9% | viability, T/C [36] 6.13%
active: viability, T/C [6] 6.08% | viability, T/C [12] 4.37% | viability, T/C [18] 6.45%
< 31.6 nM: IC50 (second compound 1 µM) | IC50 (second compound 3.16 µM) | IC50 (second compound 10 µM)
6100 nM: IC50 (second compound 0.0316 µM)
4370 nM: IC50 (second compound 0.1 µM)
1740 nM: IC50 (second compound 0.316 µM)

CC1COCCN1c1cc(C2(S(C)(=N)=O)CC2)nc(-c2ccnc3[nH]ccc23)n1 (stereo unspecified) + CNC(=O)c1ccc(Nc2nc(OC3CCCC3)c3c(-c4ccc5nc(C)oc5c4)c[nH]c3n2)c(OC)c1
1420 nM: IC50 (second compound 0.1 µM)
inactive: viability, T/C [1] 109% | viability, T/C [2] 109% | viability, T/C [3] 105% | viability, T/C [4] 114% | viability, T/C [5] 35% | viability, T/C [6] 13% | viability, T/C [7] 80.7% | viability, T/C [8] 77.5% | viability, T/C [9] 78.7% | viability, T/C [10] 60% | viability, T/C [11] 26.6% | viability, T/C [12] 13.7% | viability, T/C [13] 55.8% | viability, T/C [14] 57% | viability, T/C [15] 51.5% | viability, T/C [16] 39% | viability, T/C [17] 15.8% | viability, T/C [18] 10.5% | viability, T/C [19] 35.6% | viability, T/C [20] 33.4% | viability, T/C [21] 31.2% | viability, T/C [22] 22.9% | viability, T/C [23] 10.2% | viability, T/C [25] 33.9% | viability, T/C [26] 31.6% | viability, T/C [27] 28.9% | viability, T/C [28] 21.6% | viability, T/C [29] 12.2% | viability, T/C [31] 34.5% | viability, T/C [32] 35.6% | viability, T/C [33] 33% | viability, T/C [34] 24.9% | viability, T/C [35] 13%
active: viability, T/C [24] 5.07% | viability, T/C [30] 5.1% | viability, T/C [36] 7.43%
2510 nM: IC50 (second compound 0.0316 µM)
400 nM: IC50 (second compound 0.316 µM)
< 31.6 nM: IC50 (second compound 1 µM) | IC50 (second compound 3.16 µM) | IC50 (second compound 10 µM)

NC(=O)C(=Cn1cnc(-c2cc(C(F)(F)F)cc(C(F)(F)F)c2)n1)c1cncnc1 + CNC(=O)c1ccc(Nc2nc(OC3CCCC3)c3c(-c4ccc5nc(C)oc5c4)c[nH]c3n2)c(OC)c1
inactive: viability, T/C (second compound 0.0316 µM, first compound 0.00949 µM) 88.5% | viability, T/C (second compound 0.0316 µM, first compound 0.03 µM) 84.2% | viability, T/C (second compound 0.0316 µM, first compound 0.0949 µM) 79.1% | viability, T/C (second compound 0.1 µM, first compound 0.00949 µM) 54.5% | viability, T/C (second compound 0.1 µM, first compound 0.03 µM) 55.2% | viability, T/C (second compound 0.1 µM, first compound 0.0949 µM) 42.1% | viability, T/C (second compound 0.316 µM, first compound 0.00949 µM) 36.4% | viability, T/C (second compound 0.316 µM, first compound 0.03 µM) 37.7% | viability, T/C (second compound 0.316 µM, first compound 0.0949 µM) 17.6% | viability, T/C (second compound 1 µM, first compound 0.00949 µM) 25.6% | viability, T/C (second compound 1 µM, first compound 0.03 µM) 24.7% | viability, T/C (second compound 1 µM, first compound 0.0949 µM) 7.44% | viability, T/C (second compound 3.16 µM, first compound 0.00949 µM) 26.8% | viability, T/C (second compound 3.16 µM, first compound 0.03 µM) 24.6% | viability, T/C (second compound 10 µM, first compound 0.00949 µM) 28.3% | viability, T/C (second compound 10 µM, first compound 0.03 µM) 24.6%
active: viability, T/C (second compound 0.0316 µM, first compound 0.3 µM) 7.94% | viability, T/C (second compound 0.0316 µM, first compound 0.949 µM) 3.02% | viability, T/C (second compound 0.0316 µM, first compound 3 µM) 5.16% | viability, T/C (second compound 0.1 µM, first compound 0.3 µM) 6.58% | viability, T/C (second compound 0.1 µM, first compound 0.949 µM) 3.16% | viability, T/C (second compound 0.1 µM, first compound 3 µM) 2.39% | viability, T/C (second compound 0.316 µM, first compound 0.3 µM) 2.14% | viability, T/C (second compound 0.316 µM, first compound 0.949 µM) 2.54% | viability, T/C (second compound 0.316 µM, first compound 3 µM) 1.77% | viability, T/C (second compound 1 µM, first compound 0.3 µM) 2.4% | viability, T/C (second compound 1 µM, first compound 0.949 µM) 1.17% | viability, T/C (second compound 1 µM, first compound 3 µM) 2.9% | viability, T/C (second compound 3.16 µM, first compound 0.0949 µM) 3.89% | viability, T/C (second compound 3.16 µM, first compound 0.3 µM) 0.59% | viability, T/C (second compound 3.16 µM, first compound 0.949 µM) 2.87% | viability, T/C (second compound 3.16 µM, first compound 3 µM) 3.05% | viability, T/C (second compound 10 µM, first compound 0.0949 µM) 4.11% | viability, T/C (second compound 10 µM, first compound 0.3 µM) 4.12% | viability, T/C (second compound 10 µM, first compound 0.949 µM) 0.92% | viability, T/C (second compound 10 µM, first compound 3 µM) 1.85%
< 9.49 nM: IC50 (second compound 0.316 µM) | IC50 (second compound 1 µM) | IC50 (second compound 3.16 µM) | IC50 (second compound 10 µM)
152 nM: IC50 (second compound 0.0316 µM)
46 nM: IC50 (second compound 0.1 µM)
